From publication PMC4844649, “A first-in-Asian phase 1 study to evaluate safety, pharmacokinetics and clinical activity of VS-6063, a focal adhesion kinase (FAK) inhibitor in Japanese patients with advanced solid tumors” (Cancer Chemotherapy and Pharmacology, 2016)
Several values for one entry are separate records, joined by “and”; a condition that tells them apart may be missing. Equal entries are not always repeated. Entries after “also recorded” stand apart in the source; their conditions may differ.

How the values were obtained:
[1] = phase 1 safety and tolerability (CTCAE v4.03) in Japanese patients with advanced solid tumors; type: in vivo; settings: for Grade 3 AE of unconjugated hyperbilirubinemia: 200 mg BID cohort; for dose-limiting toxicities (DLTs): 200–600 mg BID
Description: This was a phase 1, open-label, dose-escalation study to evaluate the safety and PK of VS-6063, a FAK inhibitor in Japanese subjects with advanced solid tumor malignancies. This study was expected to enroll up to 18 evaluable subjects with non-hematologic malignancies if 6 subjects were assigned at each of the 3 planned dose levels of 200, 400, and 600 mg BID. VS-6063 was administered orally, BID, in continuous 21 day cycles. Subject enrollment proceeded according to a standard 3 + 3 design. In the absence of DLT, each subject received oral VS-6063 (BID) for a minimum of 21 days of continuous daily dosing (1 cycle) and could continue to receive additional cycles of study treatment until disease progression was documented or other treatment discontinuation criteria were met. All patients within a cohort were required to complete 1 cycle (21 days) of dosing with <1 of 3 or <2 of 6 subjects experiencing a DLT prior to escalation to the next dose level in a new cohort. Three subjects were to be treated at each dose level until the first instance of DLT, after which up to 6 subjects were to be treated at that dose level. […] The MTD was defined as the highest dose level studied at which <1 subject out of 3 or <2 subjects out of 6 experienced a DLT. The RP2D was to be determined in discussion among the sponsor, medical monitor, and investigators. Observations related to PK and any VS-6063-related toxicities were included in the rationale supporting the RP2D. Safety and tolerability was assessed by the incidence and severity of AEs as determined by National Cancer Institute (NCI) Common Terminology Criteria for Adverse Events (CTCAE v4.03). The antitumor activity of study treatment was assessed according to the Response Evaluation Criteria in Solid Tumors (RECIST v1.1).

recombinant human FAK = settings: in vitro; background statement, no reference given; read-out: IC50, inhibition of recombinant human FAK activity; cited from earlier work
CYP 2C, 2D, 3A = settings: preclinical evidence; no reference given; cited from earlier work
[2] = 200 mg BID, N = 3, listed as defactinib
[3] = 400 mg BID, N = 3, listed as defactinib
[4] = 600 mg BID, N = 3, listed as defactinib
[5] = Total, N = 9, listed as defactinib

## CNC(=O)c1ccc(Nc2ncc(C(F)(F)F)c(NCc3nccnc3N(C)S(C)(=O)=O)n2)cc1 [VS-6063, defactinib]
[1]
  Grade 3 AE of unconjugated hyperbilirubinemia: Only one subject
[1]; listed as defactinib
  Grade 3 AE of unconjugated hyperbilirubinemia: Only one patient
[1]; 200 mg BID, N = 3
  Anemia, treatment-related adverse event: 0 n (%)
  Aspartate aminotransferase increased, treatment-related adverse event: 1 (33.3) n (%)
  Blood alkaline phosphatase increased, treatment-related adverse event: 2 (66.7) n (%)
  Blood bilirubin increased, treatment-related adverse event: 3 (100.0) n (%)
  Decreased appetite, treatment-related adverse event: 2 (66.7) n (%)
  Diarrhea, treatment-related adverse event: 0 n (%)
  Fatigue, treatment-related adverse event: 2 n (%) and 2 (66.7) n (%)
  Headache, treatment-related adverse event: 0 n (%)
  Nausea, treatment-related adverse event: 1 (33.3) n (%)
[1]; [2]
  Blood bilirubin increased, treatment-related adverse event: 3 n (%)
  Nausea, treatment-related adverse event: 1 n (%)
[1]; 400 mg BID, N = 3
  Anemia, treatment-related adverse event: 0 n (%)
  Aspartate aminotransferase increased, treatment-related adverse event: 0 n (%)
  Blood alkaline phosphatase increased, treatment-related adverse event: 0 n (%)
  Blood bilirubin increased, treatment-related adverse event: 2 (66.7) n (%)
  Decreased appetite, treatment-related adverse event: 1 (33.3) n (%)
  Diarrhea, treatment-related adverse event: 1 (33.3) n (%)
  Fatigue, treatment-related adverse event: 1 n (%) and 1 (33.3) n (%)
  Headache, treatment-related adverse event: 1 (33.3) n (%)
  Nausea, treatment-related adverse event: 0 n (%)
[1]; [3]
  Blood bilirubin increased, treatment-related adverse event: 2 n (%)
  Diarrhea, treatment-related adverse event: 1 n (%)
[1]; 600 mg BID, N = 3
  Anemia, treatment-related adverse event: 2 (66.7) n (%)
  Aspartate aminotransferase increased, treatment-related adverse event: 1 (33.3) n (%)
  Blood alkaline phosphatase increased, treatment-related adverse event: 0 n (%)
  Blood bilirubin increased, treatment-related adverse event: 2 (66.7) n (%)
  Decreased appetite, treatment-related adverse event: 1 (33.3) n (%)
  Diarrhea, treatment-related adverse event: 2 (66.7) n (%)
  Fatigue, treatment-related adverse event: 3 n (%) and 3 (100.0) n (%)
  Headache, treatment-related adverse event: 1 (33.3) n (%)
  Nausea, treatment-related adverse event: 1 (33.3) n (%)
[1]; [4]
  Blood bilirubin increased, treatment-related adverse event: 2 n (%)
  Diarrhea, treatment-related adverse event: 2 n (%)
  Nausea, treatment-related adverse event: 1 n (%)
[1]; Japanese subjects
  recommended Phase 2 dose (RP2D): 400 mg BID
[1]; Total, N = 9
  Anemia, treatment-related adverse event: 2 (22.2) n (%)
  Aspartate aminotransferase increased, treatment-related adverse event: 2 (22.2) n (%)
  Blood alkaline phosphatase increased, treatment-related adverse event: 2 (22.2) n (%)
  Blood bilirubin increased, treatment-related adverse event: 7 (77.8) n (%)
  Decreased appetite, treatment-related adverse event: 4 (44.4) n (%)
  Diarrhea, treatment-related adverse event: 3 (33.3) n (%)
  Fatigue, treatment-related adverse event: 6 (66.7) n (%)
  Headache, treatment-related adverse event: 2 (22.2) n (%)
  Nausea, treatment-related adverse event: 2 (22.2) n (%)
[1]; [5]
  Blood bilirubin increased, treatment-related adverse event: 7 n (%)
  Decreased appetite, treatment-related adverse event: 4 n (%)
  Diarrhea, treatment-related adverse event: 3 n (%)
  Fatigue, treatment-related adverse event: 6 n (%)
  Nausea, treatment-related adverse event: 2 n (%)
[1]; all dose cohorts
  AEs leading to death, SAEs, AEs leading to early study withdrawal: no AEs leading to death or SAEs, and no AEs leading to early study withdrawal
  concurrent increases in ALT or AST above ULN in subjects with hyperbilirubinemia: no increase in ALT or AST values associated with the increases in bilirubin
  proteinuria: no subject developed any grade of proteinuria
[1]; all dose cohorts, listed as defactinib
  concurrent increases in ALT or AST above ULN in subjects with hyperbilirubinemia: None of these subjects had concurrent increases in ALT or AST above ULN
[1]; all dose levels investigated
  tolerability: well tolerated at all dose levels investigated; also recorded: acceptable safety profile
[1]; any dose cohort
  ECG parameters and QTc interval: No clinically meaningful changes in any ECG parameter were observed for any dose cohort and no subject had a QTc interval ≥500 ms or QTc increase from baseline >30 ms
  dose-limiting toxicities (DLTs): No dose-limiting toxicities were observed at any dose level
[1]; any dose cohort, listed as defactinib
  dose-limiting toxicities (DLTs): No DLTs were reported in any dose cohort
[1]; of the 9 subjects
  subjects requiring dose modification for increased bilirubin: 1 subjects
[1]; one patient, 200 mg cohort, following interruption of study drug
  time to resolution of Grade 3 hyperbilirubinemia after onset: 6 days
[1]; typical onset, asymptomatic
  onset of hyperbilirubinemia after initiating treatment: ≤ 2 weeks
Recombinant human FAK
  IC50: 0.6 nM
CYP 2C, 2D, 3A
  potential for CYP 2C-, 2D- or 3A-mediated drug interactions: low potential
